Calls of active or inactive are those of the source. How the calls were made is not given here.
Tested on: CCRIS mutagenicity, Ames/micronucleus/aberration tests
Experiment: CCRIS mutagenicity studies
[1] = Test System: AMES SALMONELLA TYPHIMURIUM, Strain/Indicator: TA100, Metabolic Activation: NONE, Method: STANDARD PLATE
[2] = Test System: AMES SALMONELLA TYPHIMURIUM, Strain/Indicator: TA98, Metabolic Activation: NONE, Method: STANDARD PLATE
[3] = Test System: AMES SALMONELLA TYPHIMURIUM, Strain/Indicator: TA98, Metabolic Activation: RAT, LIVER, S-9, AROCLOR 1254, Method: STANDARD PLATE
[4] = Test System: AMES SALMONELLA TYPHIMURIUM, Strain/Indicator: TA98(1,8-DNP6), Metabolic Activation: NONE, Method: STANDARD PLATE

Measured: mutagenic call

O=c1c2c(c3ccc4[nH]cccc4c3c1O)O2
inactive: [1] inactive; negative

O=[N+]([O-])c1ccc2c3c(c4cccc5ccc1c2c54)CCCC3
active: [2] active; positive | [3] active; positive

CN1CC[C@H](c2c(O)cc(O)c3c(=O)cc(-c4ccccc4Cl)oc23)[C@H](O)C1
active: Test System: Mouse lymphoma, Strain/Indicator: L5178Y (tk+/tk-), Metabolic Activation: Rat, Liver, S-9, Aroclor 1254, Method: Suspension/plate active; inconclusive (previous evaluation positive)
inactive: Test System: Mouse lymphoma, Strain/Indicator: L5178Y (tk+/tk-), Metabolic Activation: None, Method: Suspension/plate inactive; negative

Cc1c(N)nc([C@H](CC(N)=O)NC[C@H](N)C(N)=O)nc1C(=O)N[C@H](C(=O)N[C@H](C)[C@@H](O)[C@H](C)C(=O)N[C@H](C(=O)NCCc1nc(-c2nc(C(=O)NCCCNCCCN=C(N)CC3CCC(Cl)CC3)cs2)cs1)[C@@H](C)O)[C@@H](O[C@@H]1O[C@@H](CO)[C@@H](O)[C@H](O)[C@@H]1O[C@H]1O[C@H](CO)[C@@H](O)[C@H](OC(N)=O)[C@@H]1O)c1cnc[nH]1 (stereo partly specified)
active: Test System: AMES SALMONELLA TYPHIMURIUM, Strain/Indicator: TA94, Metabolic Activation: NONE, Method: PREINCUBATION active; positive | Test System: AMES SALMONELLA TYPHIMURIUM, Strain/Indicator: TA102, Metabolic Activation: NONE, Method: PREINCUBATION active; positive

O=Nc1ccc2ccc3cc4ccccc4c4ccc1c2c34
active: Test System: AMES SALMONELLA TYPHIMURIUM, Strain/Indicator: TA98 (1,8-DNP6), Metabolic Activation: NONE, Method: STANDARD PLATE active; positive | Test System: AMES SALMONELLA TYPHIMURIUM, Strain/Indicator: TA98 (NR), Metabolic Activation: NONE, Method: STANDARD PLATE active; positive | [2] active; positive | Test System: CHINESE HAMSTER OVARY, Strain/Indicator: CHO-K1-BH4 (HGPRT), Metabolic Activation: NONE active; positive

O=c1oc2c([N+](=O)[O-])cccc2c2ccccc12
inactive: Test System: AMES SALMONELLA TYPHIMURIUM, Strain/Indicator: TA98(NR), Metabolic Activation: NONE, Method: STANDARD PLATE inactive; negative
active: Test System: AMES SALMONELLA TYPHIMURIUM, Strain/Indicator: TA98(1,8-DNP6), Metabolic Activation: NONE, Method: MICROSUSPENSION active; positive | [4] active; positive | Test System: AMES SALMONELLA TYPHIMURIUM, Strain/Indicator: TA98(NR), Metabolic Activation: NONE, Method: MICROSUSPENSION active; positive | Test System: AMES SALMONELLA TYPHIMURIUM, Strain/Indicator: TA98(NR), Metabolic Activation: RAT, LIVER, S-9, AROCLOR 1254, Method: STANDARD PLATE active; positive | Test System: AMES SALMONELLA TYPHIMURIUM, Strain/Indicator: TA98, Metabolic Activation: NONE, Method: MICROSUSPENSION active; positive | [2] active; positive | Test System: AMES SALMONELLA TYPHIMURIUM, Strain/Indicator: TA98, Metabolic Activation: RAT, LIVER, S-9, AROCLOR 1254, Method: MICROSUSPENSION active; positive | [3] active; positive

CCOP(=O)(OCC)N1[C@@H]2c3ccccc3-c3ccccc3[C@@H]21 (stereo partly specified)
active: [1] active; positive | Test System: CHINESE HAMSTER V-79, Strain/Indicator: V-79/6-THIOGUANINE, Metabolic Activation: NONE, Method: STANDARD PLATE active; positive

Cc1c(N=C=O)cccc1N=C=O
inactive: End Point: IN VITRO CHROMOSOMAL ABERRATIONS, Test System: CHO CELLS, Metabolic Activation: RAT, LIVER, S-9, AROCLOR 1254 inactive; negative; precipitation occurred at 500 ug/ml | Test System: AMES SALMONELLA TYPHIMURIUM, Strain/Indicator: TA97, Metabolic Activation: HAMSTER, LIVER, S-9, AROCLOR 1254 (10%), Method: PREINCUBATION inactive; negative | Test System: AMES SALMONELLA TYPHIMURIUM, Strain/Indicator: TA97, Metabolic Activation: NONE, Method: PREINCUBATION inactive; negative | Test System: AMES SALMONELLA TYPHIMURIUM, Strain/Indicator: TA97, Metabolic Activation: RAT, LIVER, S-9, AROCLOR 1254 (10%), Method: PREINCUBATION inactive; negative | Test System: AMES SALMONELLA TYPHIMURIUM, Strain/Indicator: TA98, Metabolic Activation: NONE, Method: PREINCUBATION inactive; negative | Test System: AMES SALMONELLA TYPHIMURIUM, Strain/Indicator: TA100, Metabolic Activation: NONE, Method: PREINCUBATION inactive; negative | Test System: AMES SALMONELLA TYPHIMURIUM, Strain/Indicator: TA100, Metabolic Activation: RAT, LIVER, S-9, AROCLOR 1254 (10%), Method: PREINCUBATION inactive; negative | Test System: AMES SALMONELLA TYPHIMURIUM, Strain/Indicator: TA1535, Metabolic Activation: HAMSTER, LIVER, S-9, AROCLOR 1254 (10%), Method: PREINCUBATION inactive; negative | Test System: AMES SALMONELLA TYPHIMURIUM, Strain/Indicator: TA1535, Metabolic Activation: NONE, Method: PREINCUBATION inactive; negative | Test System: AMES SALMONELLA TYPHIMURIUM, Strain/Indicator: TA1535, Metabolic Activation: RAT LIVER S-9, PHENOBARBITAL AND BETA-NAPHTHOFLAVONE, Method: PREINCUBATION inactive; negative | Test System: AMES SALMONELLA TYPHIMURIUM, Strain/Indicator: TA1535, Metabolic Activation: RAT, LIVER, S-9, AROCLOR 1254 (10%), Method: PREINCUBATION inactive; negative | Test System: AMES SALMONELLA TYPHIMURIUM, Strain/Indicator: TA1537, Metabolic Activation: NONE, Method: PREINCUBATION inactive; negative | Test System: AMES SALMONELLA TYPHIMURIUM, Strain/Indicator: TA1537, Metabolic Activation: RAT LIVER S-9, AROCLOR 1254 (10 OR 30%), Method: STANDARD PLATE inactive; negative | Test System: AMES SALMONELLA TYPHIMURIUM, Strain/Indicator: TA1537, Metabolic Activation: RAT LIVER S-9, PHENOBARBITAL AND BETA-NAPHTHOFLAVONE, Method: PREINCUBATION inactive; negative | Test System: E.COLI, Strain/Indicator: WP2UVRA, Metabolic Activation: NONE, Method: PREINCUBATION inactive; negative | Test System: E.COLI, Strain/Indicator: WP2UVRA, Metabolic Activation: RAT LIVER S-9, PHENOBARBITAL AND BETA-NAPHTHOFLAVONE, Method: PREINCUBATION inactive; negative
active: End Point: IN VITRO CHROMOSOMAL ABERRATIONS, Test System: CHL CELLS, Metabolic Activation: RAT, LIVER, S-9, SODIUM PHENOBARBITAL AND 5,6-BENZOFLAVONE active; positive (ploidy changes); authors report equivocal results for structural chang | Test System: AMES SALMONELLA TYPHIMURIUM, Strain/Indicator: TA98, Metabolic Activation: HAMSTER, LIVER, S-9, AROCLOR 1254 (10%), Method: PREINCUBATION active; positive | Test System: AMES SALMONELLA TYPHIMURIUM, Strain/Indicator: TA98, Metabolic Activation: RAT LIVER S-9 AROCLOR 1254 (10 OR 30%), Method: STANDARD PLATE active; positive | Test System: AMES SALMONELLA TYPHIMURIUM, Strain/Indicator: TA98, Metabolic Activation: RAT, LIVER, S-9, AROCLOR 1254 (10%), Method: PREINCUBATION active; positive | Test System: AMES SALMONELLA TYPHIMURIUM, Strain/Indicator: TA100, Metabolic Activation: HAMSTER, LIVER, S-9, AROCLOR 1254 (10%), Method: PREINCUBATION active; positive | Test System: MOUSE LYMPHOMA, Strain/Indicator: L5178Y (TK+/TK-), Metabolic Activation: NONE, Method: SUSPENSION/PLATE active; positive | Test System: MOUSE LYMPHOMA, Strain/Indicator: L5178Y (TK+/TK-), Metabolic Activation: RAT, LIVER, S-9, AROCLOR 1254, Method: SUSPENSION/PLATE active; positive

CC(=O)Nc1cc(O)c2ccc3cccc4ccc1c2c34
active: [4] active; positive | Test System: AMES SALMONELLA TYPHIMURIUM, Strain/Indicator: TA98(1,8-DNP6), Metabolic Activation: RAT, LIVER, S-9, AROCLOR 1254, Method: STANDARD PLATE active; positive | [2] active; positive | [3] active; positive | Test System: AMES SALMONELLA TYPHIMURIUM, Strain/Indicator: YG1024, Metabolic Activation: NONE, Method: STANDARD PLATE active; positive | Test System: AMES SALMONELLA TYPHIMURIUM, Strain/Indicator: YG1024, Metabolic Activation: RAT, LIVER, S-9, AROCLOR 1254, Method: STANDARD PLATE active; positive
